For this experiment, the target named is T1, hM2 receptor (Homo sapiens, UniProt P08172).
T1 construct: expressed in transfected cells; host or cells: CHO-K1 cells
T1 sequence (P08172 1-466): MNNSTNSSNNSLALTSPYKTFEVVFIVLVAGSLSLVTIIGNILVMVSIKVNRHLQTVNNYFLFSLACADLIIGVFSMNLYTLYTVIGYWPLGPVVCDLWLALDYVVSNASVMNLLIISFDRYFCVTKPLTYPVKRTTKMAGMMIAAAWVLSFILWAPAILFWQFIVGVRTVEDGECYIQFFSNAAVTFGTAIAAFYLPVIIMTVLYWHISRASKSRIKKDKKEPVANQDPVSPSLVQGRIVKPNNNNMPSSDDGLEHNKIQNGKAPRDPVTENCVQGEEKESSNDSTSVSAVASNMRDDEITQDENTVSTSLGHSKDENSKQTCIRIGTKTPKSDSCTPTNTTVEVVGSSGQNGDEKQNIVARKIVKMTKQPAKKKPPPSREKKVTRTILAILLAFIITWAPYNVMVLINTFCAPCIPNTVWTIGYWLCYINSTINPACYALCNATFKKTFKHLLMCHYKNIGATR
The experiment can be described thus: Blockade of agonist-mediated inhibition of cAMP accumulation. The experiment is classed as cell-based. The note with it: CHO-K1 cells expressing the hM2 receptor; read-out: Ki value for blockade of oxotremorine-inhibition of forskolin-mediated cAMP accumulation. As for the experimental part:
A. Blockade of Agonist-Mediated Inhibition of cAMP Accumulation
In this assay, the functional potency of a test compound was determined by measuring the ability of the test compound to block oxotremorine-inhibition of forskolin-mediated cAMP accumulation in CHO-K1 cells expressing the hM2 receptor.
cAMP assays were performed in a radioimmunoassay format using the Flashplate Adenylyl Cyclase Activation Assay System with ^125I-cAMP (NEN SMP004B, PerkinElmer Life Sciences Inc., Boston, Mass.), according to the manufacturer's instructions.
Cells were rinsed once with dPBS and lifted with Trypsin-EDTA solution (0.05% trypsin/0.53 mM EDTA) as described in the Cell Culture and Membrane Preparation section above. […] The cell pellet was then re-suspended in 10 mL dPBS, and the cells were counted with a Coulter Z1 Dual Particle Counter (Beckman Coulter, Fullerton, Calif.). […]
Reactions were incubated for 10 minutes at 37° C. and stopped by addition of 100 μL ice-cold detection buffer. Plates were sealed, incubated overnight at room temperature and counted the next morning on a PerkinElmer TopCount liquid scintillation counter (PerkinElmer Inc., Wellesley, Mass.). The amount of cAMP produced (pmol/well) was calculated based on the counts observed for the samples and cAMP standards, as described in the manufacturer's user manual. […]
(Changes in cAMP serve as a functional read-out for many G protein-coupled receptors.)

The values that follow come from patent publication US7524880B2, “Crystalline form of a substituted pyrrolidine compound” (Theravance, Inc., priority 2004, dated 2009).

Regarding `CNCCCCCCCCN1CC[C@@H](C(C(N)=O)(c2ccccc2)c2ccccc2)C1` [compound of formula I, 2-[(S)-1-(8-methylaminooctyl)pyrrolidin-3-yl]-2,2-diphenylacetamide], the inhibitory constant (Ki) (as a rule, a measure of affinity in units of concentration, obtained from inhibition or displacement) was less than 5 nM.
